US20130165520A1, “Hybrid Molecule Having Mixed Retinoic Acid Receptor Agonism and Histone Deacetylase Inhibitory Properties” (priority 2010, published 2013)

How the values were obtained:
RARα = target: T1, RARα (Homo sapiens, UniProt P10276); test: BRET assay of agonist-dependent coactivator recruitment in transfected HEK293 cells; assay type: cell-based
T1 sequence (P10276 1-462): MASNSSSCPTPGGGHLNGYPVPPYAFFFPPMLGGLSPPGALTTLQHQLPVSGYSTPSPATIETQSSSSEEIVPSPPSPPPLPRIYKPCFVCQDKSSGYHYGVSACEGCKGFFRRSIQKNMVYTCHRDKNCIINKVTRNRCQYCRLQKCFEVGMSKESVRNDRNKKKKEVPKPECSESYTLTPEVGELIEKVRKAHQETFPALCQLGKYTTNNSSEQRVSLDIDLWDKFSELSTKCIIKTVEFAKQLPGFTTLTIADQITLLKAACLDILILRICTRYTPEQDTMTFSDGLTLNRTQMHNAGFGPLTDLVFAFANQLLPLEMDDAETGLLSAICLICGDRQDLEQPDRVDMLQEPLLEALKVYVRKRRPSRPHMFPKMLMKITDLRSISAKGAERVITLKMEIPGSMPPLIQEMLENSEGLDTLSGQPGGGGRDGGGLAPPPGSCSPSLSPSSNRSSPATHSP
Protocol: Hybrid 3 was prepared by treatment of the methyl ester of TTNN with excess hydroxylamine under alkaline conditions. The effects of hybrid 3 on RAR were initially assessed using a bioluminescence resonance energy transfer (BRET) assay. The BRET assay monitors agonist-dependent recruitment of coactivators to RARs in transfected HEK293 cells, chosen because of their high degree of transfectability. Energy transfer between luciferase (fused to RARα) and eGFP (fused to the LXXLL coactivator motif) occurs only when these moieties are juxtaposed by the RAR-LXXLL interaction, and can be detected by the emission of green fluorescence.
Cell transfection and BRET assays: HEK293 cells were grown to confluence, trypsinized and plated at a density of 500 k cells per well (12-well plates) in DMEM supplemented with 10% charcoal treated FBS (FBS-T). The following day, cells were transfected with PEI using 0.1 μg of RAR-RLuc vector and 1 μg of LXXLL-eGFP vector. 48 hours post-transfection, cells were treated with retinoids for 2 hours before taking BRET measurements as described previously.

[1] = tested on: RAR target genes in MDA-MB-231 cell line; test: RT-qPCR analysis of RAR and HDACi target genes; assay type: cell-based
Text: The agonist activity of 3 through its effects on RAR target genes was subsequently analyzed (FIG. 3).

purified human HDAC3 = purified human HDAC3 (Homo sapiens, UniProt O15379); test: Standard fluorescence HDAC assay; assay type: biochemical; settings: purified human enzyme, read-out: IC50 against HDAC3
purified human HDAC3, sequence (O15379 whole entry): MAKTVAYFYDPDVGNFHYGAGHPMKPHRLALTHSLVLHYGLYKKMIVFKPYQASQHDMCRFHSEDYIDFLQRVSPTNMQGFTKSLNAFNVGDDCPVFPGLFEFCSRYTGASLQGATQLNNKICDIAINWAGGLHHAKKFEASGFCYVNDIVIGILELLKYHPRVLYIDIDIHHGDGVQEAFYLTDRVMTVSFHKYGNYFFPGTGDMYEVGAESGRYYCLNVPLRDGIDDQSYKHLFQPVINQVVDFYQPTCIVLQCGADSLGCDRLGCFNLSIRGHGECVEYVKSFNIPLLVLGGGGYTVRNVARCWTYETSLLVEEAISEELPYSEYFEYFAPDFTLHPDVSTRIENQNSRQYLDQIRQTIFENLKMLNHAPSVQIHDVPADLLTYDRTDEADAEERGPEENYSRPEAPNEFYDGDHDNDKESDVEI
purified human HDAC3, sequence (Q9Y618 395-489 partner limits assumed): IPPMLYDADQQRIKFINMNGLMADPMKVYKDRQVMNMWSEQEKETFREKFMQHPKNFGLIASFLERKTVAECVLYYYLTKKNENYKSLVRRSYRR

CCRF-CEM = CCRF-CEM (Leukemia); 48 h
HL-60(TB) = HL-60(TB) (Leukemia); 48 h
SR = SR (Leukemia); 48 h
HOP-92 = HOP-92 (Non-Small cell lung cancer); 48 h
NCI-H226 [2] = settings: NCI-H226 (Non-Small cell lung cancer); 48 h
NCI-H460 = NCI-H460 (Non-Small cell lung cancer); 48 h
LOX IMVI = LOX IMVI (Melanoma); 48 h
SK-MEL-2 [3] = settings: SK-MEL-2 (Melanoma); 48 h
SK-MEL-5 = SK-MEL-5 (Melanoma); 48 h
UACC-62 = UACC-62 (Melanoma); 48 h
786-0 = 786-0 (Renal); 48 h
RXF393 = RXF393 (Renal); 48 h
PC-3 = PC-3 (Prostate); 48 h
MDA-MB-231/ATCC = MDA-MB-231/ATCC (Breast); 48 h
MDA-MB-468 = MDA-MB-468 (Breast); 48 h
NCI-H226 [4] = test: cells; settings: Homo sapiens, NCI-H226, 48 h
HCT-116 = test: cells; settings: Homo sapiens, HCT-116, 48 h
SNB-75 = test: cells; settings: Homo sapiens, SNB-75, 48 h
M14 = test: cells; settings: Homo sapiens, M14, 48 h
SK-MEL-2 [5] = test: cells; settings: Homo sapiens, SK-MEL-2, 48 h
UACC-257 = test: cells; settings: Homo sapiens, UACC-257, 48 h
SK-OV-3 = test: cells; settings: Homo sapiens, SK-OV-3, 48 h
SN12C = test: cells; settings: Homo sapiens, 48 h

CC1(C)CCC(C)(C)c2cc(-c3ccc4cc(C(=O)NO)ccc4c3)ccc21 [hybrid 3]
RARα agonism (BRET signal) (RARα; 1 μM, 2 hours treatment): agonists of RARα | EC50 (RARα; FIG. 2b, read-out: IC50 in inducing RARα (BRET dose-response)): 1020 nM | regulation of HDACi-regulated genes RARB1 and CyclinD1 ([1]; MDA-MB-231): follow similar regulation | induction of RAR target genes (RT-qPCR) ([1]; MDA-MB-231 cell line): clear induction of RARB2 and DHRS3 | IC50 (purified human HDAC3): 5000 nM | TGI (CCRF-CEM): 1950 nM | TGI (HL-60(TB)): 1520 nM | TGI (SR): 1200 nM | TGI (HOP-92): 6350 nM | TGI (NCI-H226 [2]): 4190 nM | TGI (NCI-H460): 1070 nM | TGI (LOX IMVI): 1360 nM | TGI (SK-MEL-2 [3]): 6310 nM | TGI (SK-MEL-5): 2310 nM | TGI (UACC-62): 1860 nM | TGI (786-0): 2370 nM | TGI (RXF393): 2820 nM | TGI (PC-3): 4250 nM | TGI (MDA-MB-231/ATCC): 3590 nM | TGI (MDA-MB-468): 2750 nM | GI50 (NCI-H226 [4]): 1220 nM | CC50 (NCI-H226 [4]; read-out: LC50): 18800 nM | GI50 (HCT-116): 424 nM | CC50 (HCT-116; read-out: LC50): 4030 nM | GI50 (SNB-75): 1740 nM | CC50 (SNB-75; read-out: LC50): 24900 nM | GI50 (M14): 708 nM | CC50 (M14; read-out: LC50): 7430 nM | GI50 (SK-MEL-2 [5]): 2420 nM | CC50 (SK-MEL-2 [5]; read-out: LC50): 33600 nM | GI50 (UACC-257): 1980 nM | CC50 (UACC-257; read-out: LC50): 29700 nM | GI50 (SK-OV-3): 1540 nM | CC50 (SK-OV-3; read-out: LC50): 34800 nM | GI50 (SN12C): 1050 nM | CC50 (SN12C; read-out: LC50): 5340 nM
